The target of one assay is T1, SCD1 (Homo sapiens, UniProt O00767).
T1 construct: host or cells: S. cerevisiae ole1Δ strain (W303 pdr1Δ pdr3Δ background), plasmid pRS316 with TDH3 promoter and CYC1 terminator
T1 sequence (O00767 1-359): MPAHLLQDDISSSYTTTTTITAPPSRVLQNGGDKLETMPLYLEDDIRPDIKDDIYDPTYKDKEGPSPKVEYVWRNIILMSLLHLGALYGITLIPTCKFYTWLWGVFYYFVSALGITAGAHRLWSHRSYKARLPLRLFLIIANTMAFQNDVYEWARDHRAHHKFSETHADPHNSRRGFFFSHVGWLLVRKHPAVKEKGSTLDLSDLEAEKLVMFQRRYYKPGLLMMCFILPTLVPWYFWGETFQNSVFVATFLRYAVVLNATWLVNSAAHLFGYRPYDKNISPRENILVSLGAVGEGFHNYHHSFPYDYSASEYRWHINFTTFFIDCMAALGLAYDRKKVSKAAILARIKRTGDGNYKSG
In words: Growth inhibition of humanized yeast strain expressing SCD1 as sole desaturase. The assay is classed as cell-based. How it is done: Strain oleΔ (yeast ole1 deletion mutant) was constructed by deleting OLE1 with NAT-MX6 in BY4741, amplifying the deletion cassette from the genomic DNA of the resulting strain with primers flanking the ORF by 1000 bp upstream and downstream, transforming the resulting deletion cassette into W303 pdr1Δ pdr3Δ, and plating transformants on YPD media containing G418 (200 μg/mL) and nourseothricin ([…]) with 0.01% TWEEN®-20 and 0.5 mM oleic and palmitoleic acids.
The coding sequence of yeast OLE1 was also cloned into this plasmid). These clones were then transformed into the ole1Δ strain and plated on CSM-Ura media (CSM lacking uracil) with 2% glucose (w/v) and independent colonies were isolated and amplified.
All compound profiling experiments were performed using the same basic protocol. Different genetic backgrounds (e.g., gene deletions) or conditions (e.g., addition of oleic and palmitoleic acid) were replaced as indicated below.
Yeast were cultured using standard techniques in complete synthetic media (CSM) and yeast nitrogen base supplemented with 2% (w/v) carbon source (glucose, raffinose, or galactose) to regulate the expression of the toxic disease protein. An initial starter culture was inoculated in 3 mL CSM-Glucose media and incubated overnight in a 30° C. shaker incubator (225 rpm). Saturated morning cultures were then diluted 1:20 in fresh CSM-Raffinose media and grown for 6 h to an OD600 (optical density) of ˜0.4-0.8 at 30° C. with shaking.
Compound administration was performed in two separate steps. First, 15 μL of CSM-Galactose (induces expression of toxic protein) was dispensed into clear 384 well assay plates using a MULTIDROP™ Combi reagent dispenser. […] The cultures described above were then diluted to a 2× concentration (0.03 and 0.08 for alpha-synuclein and ApoE, final ODsoo of 0.015 and 0.04) in CSM-Galactose. For wild-type and Ole1/SCD1/SCD5 plasmid-containing strains, the 2× cell density was 0.02. […] For 96-well assays (FIGS. 1A and 1B), compound dilutions in DMSO were generated in 96 well plates and 1 μL was manually pipetted into 96 well clear bottom assay plates.
For experiments using a plasmid-borne copy of Ole1, SCD1, or SCD5 (FIGS. 3B, 6, and 7), media lacking uracil (SX-Ura, where X is glucose, raffinose, or galactose), was used for all steps of the compound profiling protocol to ensure its maintenance throughout the assay.
After yeast delivery, assay plates were incubated under humidified conditions at 30° C. for 24 to 40 h. ApoE4 rescue experiments were stopped at 24 h, aSyn experiments at 40 h, Ole1 at 24 h, and SCD1/SCD5 at 40 h. The growth of yeast was monitored by reading the ODsoo of each well using a microplate reader (Perkin Elmer EnVision™).

For a further assay, the target named is T2, SCD5 (Homo sapiens, UniProt Q86SK9).
T2 construct: host or cells: S. cerevisiae ole1Δ strain (W303 pdr1Δ pdr3Δ background), plasmid pRS316 with TDH3 promoter and CYC1 terminator
T2 sequence (Q86SK9 1-330): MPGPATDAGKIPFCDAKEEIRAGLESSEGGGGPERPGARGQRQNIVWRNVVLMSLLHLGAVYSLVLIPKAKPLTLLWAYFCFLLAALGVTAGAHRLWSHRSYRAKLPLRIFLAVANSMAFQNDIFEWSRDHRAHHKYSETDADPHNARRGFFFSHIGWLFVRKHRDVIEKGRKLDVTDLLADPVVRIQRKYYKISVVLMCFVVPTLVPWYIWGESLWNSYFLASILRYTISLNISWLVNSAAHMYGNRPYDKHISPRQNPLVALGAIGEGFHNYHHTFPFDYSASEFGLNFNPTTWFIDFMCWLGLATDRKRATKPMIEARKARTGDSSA
Briefly: Growth inhibition of humanized yeast strain expressing SCD5 as sole desaturase. The assay is classed as cell-based. An outline of the steps:
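OD600 growth read-out. ole1Δ yeast, pdr1Δ pdr3Δ, with Ole1/SCD1/SCD5 on a plasmid; SX-Ura media throughout; 2× cell density 0.02 in CSM-Galactose; DMSO compound dilutions; humidified 30° C.; Ole1 stopped at 24 h, SCD1/SCD5 at 40 h.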

Setting [1] is: growth inhibition of humanized yeast strain expressing human SCD1.
[2] abbreviates: growth inhibition of humanized yeast strain expressing human SCD5.
[3] abbreviates: humanized yeast strain expressing SCD1.
The mark [4] stands for this setting: humanized yeast strain expressing SCD5.

The term IC50 denotes the concentration at which inhibition is half-maximal. Higher therefore signals a need for much substance. In the case of `CC(C)(C)OC(=O)N1C[C@@H]2[C@H](C1)[C@H]2C(=O)NCc1ccc(Cl)cc1` [Compound 773], the 50% inhibitory concentration (IC50) against SCD1 (humanized yeast strain, 40 h) was greater than 45 µM; against SCD5 (humanized yeast strain, 40 h) it was 21.5 µM.
Regarding `CC(C)(C)OC(=O)N1CCN(c2nc(-c3ccc4cn(C5COC5)nc4c3)no2)CC1` [Compound 701], the half-inhibitory concentration (IC50) against SCD1 (setting [1]) and at SCD5 (setting [2]) was greater than 45 µM each time.
As for `COC(=O)N1CCC(c2noc(-c3ccn4cnc(C(C)C)c4c3)n2)CC1` [Compound 1045], the IC50 was no less than 45 µM against SCD1 (humanized yeast strain, 40 h) and 0.935 µM on SCD5 (humanized yeast strain, 40 h).
The corresponding values for `O=C(C1CCC1)N1CCC(c2noc(-c3ccnc(C4CCOC4)c3)n2)CC1` (stereo not shown) [Compound 1180] are greater than 45 µM and 0.06 µM.
As to `COC1CCC(S(=O)(=O)N2CCC(c3nc(-c4ccc5cnn(C(C)C)c5c4)no3)CC2)CC1` (stereo not shown) [Compound 517], the IC50 on SCD1 (setting [3]) and against SCD5 (setting [4]) was greater than 45 µM each time.
`COC(=O)N1CCC(c2noc(-c3ccc(F)c(N4CCOCC4)c3)n2)CC1` [Compound 1161]: the IC50 was greater than 45 µM against SCD1 (humanized yeast strain, 40 h) and 0.0363 µM at SCD5 (humanized yeast strain, 40 h).
Take `CC(C)n1ncc2ccc(-c3nc(N4CCN(C(=O)c5ccccc5Cl)CC4)no3)cc21` [Compound 580]: the IC50 turned out to be 14.1 µM on SCD1 (setting [3]) and 0.022 µM on SCD5 (setting [4]).
Consider `COC(=O)N1CCC(c2nc(N3CCc4cnn(C(C)C)c4C3)no2)CC1` [Compound 908], for which the IC50 on SCD1 (humanized yeast strain, 40 h) is greater than 45 µM; on SCD5 (humanized yeast strain, 40 h), 0.19 µM.
Turning to `CC(C)N1C(=O)Cc2ccc(-c3noc(C4CCN(C(=O)CC(C)(C)C)CC4)n3)cc21` [Compound 611], the results for the IC50 at SCD1 (setting [1]) and on SCD5 (setting [2]) were greater than 45 µM and 7.48 µM, respectively.
Turning to `C[C@@H]1C[C@H](c2noc(-c3ccc4cnn(C5COC5)c4c3)n2)CCN1C(=O)OC(C)(C)C` [Compound 1017], the IC50 against SCD1 (humanized yeast strain, 40 h) was 17.1 µM; against SCD5 (humanized yeast strain, 40 h), 0.01 µM.
For `CN(c1cc(-c2nc(C3CCN(C(=O)C4CC4)CC3)no2)ccn1)C1COC1` [Compound 1125], in that order: greater than 45 µM and 0.523 µM.
The corresponding values for `C[C@H]1C[C@H](c2noc(-c3ccc4cnn(C5COC5)c4c3)n2)CCN1C(=O)C1(F)CC1` [Compound 1053] are greater than 45 µM and 0.00118 µM.
As to `O[C@H]1C[C@@H](n2ncc3ccc(-c4nc(N5CCn6c(Cl)cnc6C5)no4)cc32)C1` [Compound 958], the IC50 is greater than 45 µM against SCD1 (humanized yeast strain, 40 h) and 34.5 µM on SCD5 (humanized yeast strain, 40 h).
For `C[C@H]1CN(c2noc(-c3ccc4cnn(C5COC5)c4c3)n2)CCN1C(=O)OC(C)(C)C` [Compound 956], in that order: greater than 45 µM and 2.46 µM.
As for `O=C(C1CCC1)N1CCN(c2noc(-c3ccc4cnn(C5COC5)c4c3)n2)CC(F)(F)C1` [Compound 1046], the IC50 was no less than 45 µM against SCD1 (humanized yeast strain, 40 h) and 0.01 µM on SCD5 (humanized yeast strain, 40 h).
For `CC(=O)N1CC(n2cc3ccc(-c4nc(N5CCN(C(=O)OC(C)(C)C)CC5)no4)cc3n2)C1` [Compound 914], in that order: greater than 45 µM and 6.17 µM.
For `COC(=O)N1CCC(c2nc(-c3ccc4cnn(C5CCOC5)c4c3)no2)CC1` (stereo not shown) [Compound 776], in that order: greater than 45 µM and 0.025 µM.
For `CC(C)(C)OC(=O)N1CCC(c2nnc(-c3ccc4cnn(C5CCOC5)c4c3)o2)CC1` (stereo not shown) [Compound 971], in that order: greater than 45 µM and 0.089 µM.
As for `COC(=O)N1CCC(c2noc(-c3ccc4cnn(C(C)C)c4c3)n2)CC1` [Compound 629], the values for the IC50 against SCD1 (setting [1]) and on SCD5 (setting [2]) were greater than 45 µM and 0.03 µM, respectively.
For `Cc1nnc(N2CCC(c3nc(-c4ccc5cnn(C(C)C)c5c4)no3)CC2)o1` [Compound 704], in that order: greater than 45 µM and 1.68 µM.
Regarding `CC(C)(C)OC(=O)N1CCCC(c2noc(-c3ccc4cnn(C5COC5)c4c3)n2)CC1` (stereo not shown) [Compound 850], the 50% inhibitory concentration (IC50) at SCD1 (humanized yeast strain, 40 h) is greater than 45 µM; against SCD5 (humanized yeast strain, 40 h) it was 0.01 µM.
Take `COC(=O)N1CCC(c2noc(-c3ccc4cnn(C5CNC5)c4c3)n2)CC1` [Compound 948]: the IC50 against SCD1 (humanized yeast strain, 40 h) was greater than 45 µM; against SCD5 (humanized yeast strain, 40 h), greater than 45 µM.
On to `O=C(N1CCC(c2noc(-c3cnc4cnn(C5COC5)c4c3)n2)CC1)C1(F)CC1` [Compound 1140], for which the concentration for half-maximal inhibition (IC50) was greater than 45 µM against SCD1 (humanized yeast strain, 40 h) and 0.0613 µM against SCD5 (humanized yeast strain, 40 h).
The corresponding values for `CCC(=O)N1CCN(c2noc(-c3ccnc(NC4COC4)c3)n2)CC1` [Compound 978] are greater than 45 µM and greater than 45 µM.
For `CC(C)(C)OC(=O)N1CCC(c2nc(-c3cccc(C(=O)C4COC4)c3)no2)CC1` [Compound 796], in that order: greater than 45 µM and 1.59 µM.
On to `CC(C)n1ncc2ccc(-c3noc([C@H]4CC[C@@H](O)CC4)n3)cc21` [Compound 654], for which the half-maximal inhibitory concentration (IC50) at SCD1 (setting [1]) and against SCD5 (setting [2]) was greater than 45 µM in each case.
`CC1(OC(=O)N2CC(c3nc(-c4ccc5cnn(C6COC6)c5c4)no3)C2)CC1` [Compound 724]: the IC50 was greater than 45 µM against SCD1 (setting [1]) and 1.25 µM against SCD5 (setting [2]).
As for `CC(C)(C)OC(=O)N1CCC(c2nc(-c3ccnc(C4CCOC4)c3)no2)CC1` (stereo not shown) [Compound 992], the 50% inhibitory concentration (IC50) against SCD1 (humanized yeast strain, 40 h) was greater than 45 µM; against SCD5 (humanized yeast strain, 40 h) it was 0.081 µM.
As for `CC(C)N1C(=O)Cc2ccc(-c3noc(C4CCN(C(=O)c5ccccc5Cl)CC4)n3)cc21` [Compound 612], the IC50 was greater than 45 µM on SCD1 (setting [1]) and 2.38 µM against SCD5 (setting [2]).
On to `O=S(=O)(C1CCC1)N1CCC(c2noc(-c3ccc4cnn(C5COC5)c4c3)n2)CC1` [Compound 969], for which the IC50 against SCD1 (humanized yeast strain, 40 h) is greater than 45 µM; at SCD5 (humanized yeast strain, 40 h), 1.42 µM.
On to `Cc1nn(C)c2cc(-c3noc(N4CCN(C(=O)OC5(C)CC5)CC4)n3)ccc12` [Compound 613], for which the 50% inhibitory concentration (IC50) against SCD1 (setting [1]) and against SCD5 (setting [2]) was greater than 45 µM in each case.
For the molecule `CCC(=O)N1CCCN(c2noc(-c3ccc4cnn(C5COC5)c4c3)n2)CC1` [Compound 962], the IC50 at SCD1 (humanized yeast strain, 40 h) is greater than 45 µM; against SCD5 (humanized yeast strain, 40 h), 0.01 µM.
For `CC1(OC(=O)N2CCC(c3nc(-c4ccc5cnn(C6(C)COC6)c5c4)no3)CC2)CC1` [Compound 816], in that order: greater than 45 µM and 7.19 µM.
Consider `O=C(c1ccccc1F)N1CCN(c2noc(-c3ccc4cnn(C5COC5)c4c3)n2)CC1` [Compound 725], for which the half-maximal inhibitory concentration (IC50) was 5.99 µM against SCD1 (setting [1]) and 0.011 µM on SCD5 (setting [2]).
For the molecule `CC(C)(C)OC(=O)N1CCC(c2nc(-c3ccc4c(C#N)ncn4c3)no2)CC1` [Compound 899], the half-inhibitory concentration (IC50) was greater than 45 µM against SCD1 (humanized yeast strain, 40 h) and 26 µM on SCD5 (humanized yeast strain, 40 h).
Regarding `CNC(=O)O[C@H]1CC[C@H](c2nc(-c3ccc4c(C)nn(C)c4c3)no2)CC1` [Compound 609], the half-inhibitory concentration (IC50) against SCD1 (setting [1]) and against SCD5 (setting [2]) was greater than 45 µM throughout.
Take `CC(C)(C)OC(=O)N1CCC(c2noc(-c3cc(Br)c4cnn(C5COC5)c4c3)n2)CC1` [Compound 1041]: the IC50 on SCD1 (humanized yeast strain, 40 h) is greater than 45 µM; against SCD5 (humanized yeast strain, 40 h), 0.01 µM.
Take `Clc1cnc2n1CCN(c1noc(-c3ccc4cnn(C5CCC5)c4c3)n1)C2` [Compound 905]: the half-inhibitory concentration (IC50) against SCD1 (humanized yeast strain, 40 h) is greater than 45 µM; at SCD5 (humanized yeast strain, 40 h), greater than 45 µM.

These data come from patent publication US11873298B2, “Compounds and uses thereof” (JANSSEN PHARMACEUTICA NV, priority 2017, dated 2024).
